Source: US7645762B2, “Substituted pyrazolo[1,5-a] pyrimidines as protein kinase inhibitors” (Schering Corporation, priority 2005, dated 2010)

Target: T1, CDK2 (Homo sapiens, UniProt P24941)
T1 construct: The expressed protein was approximately 34 kDa in size; made in house; host or cells: SF9 insect cells (baculovirus, pFASTBAC)
Assay: CDK2 in vitro kinase assay (SPA, 33P-ATP, biotinylated Histone H1 peptide)
Type: biochemical
Settings: recombinant cyclin A or E-dependent CDK2 from baculovirus/SF9 cells; 1 hour at room temperature; 8 point dilutions in duplicate

Compound: Nc1cc2nc(-c3ccccc3)cc(N)n2n1
- IC50: 80 nM

Compound: Nc1nn2c(N)cc(-c3ccccc3)nc2c1Br
- IC50: 4670 nM
